Reference: patent US8476265B2, “Compounds-801” (AstraZeneca AB, priority 2010, dated 2013)
Structures can show the parent of a compound that is named as a salt.

Columns and labels:
Adrenergic β2 = target: T1, Adrenergic β2 (Homo sapiens, UniProt P07550); assay: Adrenergic β2 mediated cAMP production in H292 cells (AlphaScreen), concentration response; format: cell-based; conditions: for EC50: 60 min, 300 μM rolipram, read-out: β2 pEC50 (converted); for β2 Intrinsic Activity: fraction relative to the maximum activity determined for formoterol
T1 construct: Adherent H292 cells are removed from tissue culture flasks by treatment with Accutase™ cell detachment solution; endogenous in cells; host or cells: H292 cells
T1 sequence (P07550 whole entry): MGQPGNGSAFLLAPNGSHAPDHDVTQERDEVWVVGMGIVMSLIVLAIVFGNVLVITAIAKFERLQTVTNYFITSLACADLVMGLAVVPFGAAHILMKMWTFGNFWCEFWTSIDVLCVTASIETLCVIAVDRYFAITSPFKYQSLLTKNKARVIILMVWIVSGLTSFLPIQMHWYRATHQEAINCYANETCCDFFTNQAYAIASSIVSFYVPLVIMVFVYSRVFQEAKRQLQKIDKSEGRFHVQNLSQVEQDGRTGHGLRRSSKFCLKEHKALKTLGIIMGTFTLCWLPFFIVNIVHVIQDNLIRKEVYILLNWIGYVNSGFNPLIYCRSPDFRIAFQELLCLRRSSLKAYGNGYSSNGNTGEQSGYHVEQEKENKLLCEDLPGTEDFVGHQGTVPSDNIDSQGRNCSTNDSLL
Summary of the method: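 Intracellular cAMP in lysates read by AlphaScreen, calibrated with cAMP standards; curves fitted for pEC50, with intrinsic activity as a fraction of formoterol's maximum. Agonist exposure 60 min at room temperature after 10 min rolipram (300 μM final), 1% DMSO, HEPES-buffered HBSS pH 7.4.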

[1] = target: T2, human muscarinic acetylcholine M3 receptor (Homo sapiens, UniProt P20309); assay: Muscarinic 3 receptor binding assay ([3H]NMS competition, SPA), pIC50; conditions: [3H]NMS 0.1 nM, CHO-K1 cell membranes expressing human M3 receptor
T2 construct: expressed in transfected cells; host or cells: CHO-K1 (Chinese Hamster Ovary) cell membranes
T2 sequence (P20309 whole entry): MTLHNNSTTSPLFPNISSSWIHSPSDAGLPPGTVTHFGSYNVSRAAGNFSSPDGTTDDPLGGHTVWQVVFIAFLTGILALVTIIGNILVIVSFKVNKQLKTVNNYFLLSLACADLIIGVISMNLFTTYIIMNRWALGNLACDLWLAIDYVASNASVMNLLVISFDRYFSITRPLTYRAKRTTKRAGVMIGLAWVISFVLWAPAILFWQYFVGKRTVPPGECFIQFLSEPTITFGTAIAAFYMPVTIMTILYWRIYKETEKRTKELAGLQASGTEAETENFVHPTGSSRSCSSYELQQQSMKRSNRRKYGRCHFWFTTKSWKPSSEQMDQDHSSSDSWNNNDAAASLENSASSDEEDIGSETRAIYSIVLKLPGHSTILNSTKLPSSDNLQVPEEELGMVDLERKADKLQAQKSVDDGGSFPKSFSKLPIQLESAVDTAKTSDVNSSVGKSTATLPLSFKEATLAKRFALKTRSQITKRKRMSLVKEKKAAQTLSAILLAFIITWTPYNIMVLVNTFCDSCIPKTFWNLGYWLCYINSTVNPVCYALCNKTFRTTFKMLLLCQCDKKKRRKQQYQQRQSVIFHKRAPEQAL
Summary of the method: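 SPA beads precoated with human M3-expressing CHO-K1 membranes were incubated 16 h at room temperature with serially diluted compound and 0.1 nM [3H]NMS (pH 7.4 HEPES buffer, MgCl2, BSA, 1% DMSO). Atropine (1 μM) defined non-specific binding; pIC50 is the 50% reduction in specific binding.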

| SMILES | EC50 (Adrenergic β2) | β2 Intrinsic Activity (Adrenergic β2) | IC50 [1] |
| --- | --- | --- | --- |
| CC(C)c1nc(C(=O)N2CCOC3(CCN(Cc4cccc(CCOCCC(=O)N(CCNCCc5ccc(O)c6c5OCC(=O)N6)C5CCCCC5)c4Cl)CC3)C2)cs1 [Example 27, 3-(2-Chloro-3-((4-(2-isopropylthiazole-4-carbonyl)-1-oxa-4,9-diazaspiro[5.5]undecan-9-yl)methyl)phenethoxy)-N-cyclohexyl-N-(2-(2-(5-hydroxy-3-oxo-3,4-dihydro-2H-benzo[b][1,4]oxazin-8-yl)ethylamine)ethyl)propanamide ditrifluoroacetate] | 20 nM | 0.9 | 2 nM |
| CCN(CCNCCc1ccc(O)c2[nH]c(=O)sc12)C(=O)CCOCCc1cccc(CN2CCC3(CC2)CN(C(=O)c2csc(C(C)C)n2)CCO3)c1Cl [Example 28, 3-(2-Chloro-3-((4-(2-isopropylthiazole-4-carbonyl)-1-oxa-4,9-diazaspiro[5.5]undecan-9-yl)methyl)phenethoxy)-N-ethyl-N-(2-(2-(4-hydroxy-2-Oxo-2,3-dihydrobenzo[d]thiazol-7-yl)ethylamino)ethyl)propanamide ditrifluoroacetate] | 12.6 nM | 0.8 | 2 nM |
| CCCN(CCNCCc1ccc(O)c2c1OCC(=O)N2)C(=O)CCOCCc1cccc(CN2CCC3(CC2)CN(C(=O)c2csc(C(C)C)n2)CCO3)c1Cl [Example 29, 3-(2-Chloro-3-((4-(2-isopropylthiazole-4-carbonyl)-1-oxa-4,9-diazaspiro[5.5]undecan-9-yl)methyl)phenethoxy)-N-(2-(2-(5-hydroxy-3-oxo-3,4-dihydro-2H-benzo[b][1,4]oxazin-8-yl)ethylamino)ethyl)-N-propylpropanamide ditrifluoroacetate] | 39.8 nM | 0.9 | 1.26 nM |
| CCCCN(CCNCCc1ccc(O)c2c1OCC(=O)N2)C(=O)CCOCCc1cccc(CCN2CCC3(CC2)CN(C(=O)c2csc(C(C)C)n2)CCO3)c1 [Example 34, N-Butyl-N-(2-(2-(5-hydroxy-3-oxo-3,4-dihydro-2H-benzo[b][1,4]oxazin-8-yl)ethylamino)ethyl)-3-(3-(2-(4-(2-isopropylthiazole-4-carbonyl)-1-oxa-4,9-diazaspiro[5.5]undecan-9-yl)ethyl)phenethoxy)propanamide ditrifluoroacetate] | 10 nM | 1.0 | 1 nM |
| CCN(CCNCCc1ccc(O)c2[nH]c(=O)sc12)C(=O)CCOCCc1cccc(CCN2CCC3(CC2)CN(C(=O)c2csc(C(C)C)n2)CCO3)c1 [Example 35, N-Ethyl-N-(2-(2-(4-hydroxy-2-oxo-2,3-dihydrobenzo[d]thiazol-7-yl)ethylamino)ethyl)-3-(3-(2-(4-(2-isopropylthiazole-4-carbonyl)-1-oxa-4,9-diazaspiro[5.5]undecan-9-yl)ethyl)phenethoxy)propanamide ditrifluoroacetate] | 3.16 nM | 1.0 | 3.98 nM |
| CC(C)c1nc(C(=O)N2CCOC3(CCN(CCc4cccc(CCOCCC(=O)N(CCNCCc5ccc(O)c6c5OCC(=O)N6)C5CCCCC5)c4)CC3)C2)cs1 [Example 36, N-Cyclohexyl-N-(2-(2-(5-hydroxy-3-oxo-3,4-dihydro-2H-benzo[b][1,4]oxazin-8-yl)ethylamino)ethyl)-3-(3-(2-(4-(2-isopropylthiazole-4-carbonyl)-1-oxa-4,9-diazaspiro[5.5]undecan-9-yl)ethyl)phenethoxy)propanamide ditrifluoroacetate] | 12.6 nM | 1.0 | 2.51 nM |
| CC(C)c1nc(C(=O)N2CCOC3(CCN(CCc4cccc(CCOCCC(=O)N(CCNCCc5ccc(O)c6c5OCC(=O)N6)C5CCCC5)c4)CC3)C2)cs1 [Example 39, N-Cyclopentyl-N-(2-(2-(5-hydroxy-3-oxo-3,4-dihydro-2H-benzo[b][1,4]oxazin-8-yl)ethylamino)ethyl)-3-(3-(2-(4-(2-isopropylthiazole-4-carbonyl)-1-oxa-4,9-diazaspiro[5.5]undecan-9-yl)ethyl)phenethoxy)propanamide ditrifluoroacetate] | 10 nM | 1.0 | 1 nM |

Stronger by IC50 [1], values ahead:

| EC50 (Adrenergic β2) | β2 Intrinsic Activity (Adrenergic β2) | IC50 [1] | SMILES |
| --- | --- | --- | --- |
| 10 nM | 0.9 | 0.794 nM | CC[C@@H](C)N(CCNCCc1ccc(O)c2c1OCC(=O)N2)C(=O)CCOCCc1cccc(CCN2CCC3(CC2)CN(C(=O)c2csc(C(C)C)n2)CCO3)c1 [Example 37, (R)—N-sec-Butyl-N-(2-(2-(5-hydroxy-3-oxo-3,4-dihydro-2H-benzo[b][1,4]oxazin-8-yl)ethylamino)ethyl)-3-(3-(2-(4-(2-isopropylthiazole-4-carbonyl)-1-oxa-4,9-diazaspiro[5.5]undecan-9-yl)ethyl)phenethoxy)propanamide ditrifluoroacetate] |
| 7.94 nM | 0.8 | 0.631 nM | CCc1nc(C(=O)N2CCOC3(CCN(Cc4cccc(CCOCCC(=O)N(CC)CCNCCc5ccc(O)c6[nH]c(=O)sc56)c4Cl)CC3)C2)cs1 [Example 26, 3-(2-Chloro-3-((4-(2-ethylthiazole-4-carbonyl)-1-oxa-4,9-diazaspiro[5.5]undecan-9-yl)methyl)phenethoxy)-N-ethyl-N-(2-(2-(4-hydroxy-2-oxo-2,3-dihydrobenzo[d]thiazol-7-yl)ethylamino)ethyl)propanamide ditrifluoroacetate] |
| 15.8 nM |  | 0.631 nM | CCCCN(CCNCCc1ccc(O)c2c1OCC(=O)N2)C(=O)CCOCCc1cccc(CCN2CCC3(CC2)CN(C(=O)c2csc(C(C)C)n2)CCO3)c1 [Example 34a, N-Butyl-N-(2-(2-(5-hydroxy-3-oxo-3,4-dihydro-2H-benzo[b][1,4]oxazin-8-yl)ethylamino)ethyl)-3-(3-(2-(4-(2-isopropylthiazole-4-carbonyl)-1-oxa-4,9-diazaspiro[5.5]undecan-9-yl)ethyl)phenethoxy)propanamide Sulphate salt Modification A] |
| 20 nM | 1.0 | 0.398 nM | CCc1nc(C(=O)N2CCOC3(CCN(Cc4cccc(CCOCCC(=O)N(CCNCCc5ccc(O)c6c5OCC(=O)N6)[C@H](C)CC)c4Cl)CC3)C2)cs1 [Example 31, (R)—N-sec-Butyl-3-(2-chloro-3-((4-(2-ethylthiazole-4-carbonyl)-1-oxa-4,9-diazaspiro[5.5]undecan-9-yl)methyl)phenethoxy)-N-(2-(2-(5-hydroxy-3-oxo-3,4-dihydro-2H-benzo[b][1,4]oxazin-8-yl)ethylamino)ethyl)propanamide ditrifluoroacetate] |
| 15.8 nM | 0.9 | 0.398 nM | CCCCN(CCNCCc1ccc(O)c2c1OCC(=O)N2)C(=O)CCOCCc1cccc(CN2CCC3(CC2)CN(C(=O)c2csc(CC)n2)CCO3)c1Cl [Example 32, N-Butyl-3-(2-chloro-3-((4-(2-ethylthiazole-4-carbonyl)-1-oxa-4,9-diazaspiro[5.5]undecan-9-yl)methyl)phenethoxy)-N-(2-(2-(5-hydroxy-3-oxo-3,4-dihydro-2H-benzo[b][1,4]oxazin-8-yl)ethylamino)ethyl)propanamide ditrifluoroacetate] |
| 15.8 nM | 1.0 | 0.398 nM | CCc1nc(C(=O)N2CCOC3(CCN(Cc4cccc(CCOCCC(=O)N(CCNCCc5ccc(O)c6c5OCC(=O)N6)C5CCCC5)c4Cl)CC3)C2)cs1 [Example 33, 3-(2-Chloro-3-((4-(2-ethylthiazole-4-carbonyl)-1-oxa-4,9-diazaspiro[5.5]undecan-9-yl)methyl)phenethoxy)-N-cyclopentyl-N-(2-(2-(5-hydroxy-3-oxo-3,4-dihydro-2H-benzo[b][1,4]oxazin-8-yl)ethylamino)ethyl)propanamide ditrifluoroacetate] |
| 15.8 nM | 1.0 | 0.398 nM | CCCC[C@@H](C)N(CCNCCc1ccc(O)c2c1OCC(=O)N2)C(=O)CCOCCc1cccc(CCN2CCC3(CC2)CN(C(=O)c2csc(C)n2)CCO3)c1 [Example 38, (R)—N-(Hexan-2-yl)-N-(2-(2-(5-hydroxy-3-oxo-3,4-dihydro-2H-benzo[b][1,4]oxazin-8-yl)ethylamino)ethyl)-3-(3-(2-(4-(2-methylthiazole-4-carbonyl)-1-oxa-4,9-diazaspiro[5.5]undecan-9-yl)ethyl)phenethoxy)propanamide ditrifluoroacetate] |
| 7.94 nM | 0.8 | 0.316 nM | CCc1nc(C(=O)N2CCOC3(CCN(Cc4cccc(CCOCCC(=O)N(CC)CCNCCc5ccc(O)c6c5OCC(=O)N6)c4Cl)CC3)C2)cs1 [Example 30, 3-(2-Chloro-3-((4-(2-ethylthiazole-4-carbonyl)-1-oxa-4,9-diazaspiro[5.5]undecan-9-yl)methyl)phenethoxy)-N-ethyl-N-(2-(2-(5-hydroxy-3-oxo-3,4-dihydro-2H-benzo[b][1,4]oxazin-8-yl)ethylamino)ethyl)propanamide ditrifluoroacetate] |
| 39.8 nM | 0.8 | 0.158 nM | CCN(CCNCCc1ccc(O)c2c1OCC(=O)N2)C(=O)CCOCCc1cccc(CN2CCC3(CC2)CN(C(=O)c2csc(C4CCCC4)n2)CCO3)c1F [Example 25, 3-(3-((4-(2-Cyclopentylthiazole-4-carbonyl)-1-oxa-4,9-diazaspiro[5.5]undecan-9-yl)methyl)-2-fluorophenethoxy)-N-ethyl-N-(2-(2-(5-hydroxy-3-oxo-3,4-dihydro-2H-benzo[b][1,4]oxazin-8-yl)ethylamino)ethyl)propanamide ditrifluoroacetate] |
